SMILES strings stand for the structures.

A short description of this series: Henry solubility constant Hcp at 298.15 K (mol/(m3 Pa)). The following applies: reference: Bamford et al. (2000).
For `Clc1cc(Cl)c(-c2c(Cl)c(Cl)cc(Cl)c2Cl)c(Cl)c1Cl` [2,2',3,3',4,5',6,6'-octachlorobiphenyl], the “Henry solubility constant Hcp” value worked out at 0.01.

Turning to `Clc1cc(Cl)c(-c2c(Cl)c(Cl)cc(Cl)c2Cl)cc1Cl` [2,2',3,4',5,5',6-heptachlorobiphenyl], the “Henry solubility constant Hcp” value amounted to 0.016.

In the case of `Clc1cc(Cl)c(-c2c(Cl)c(Cl)cc(Cl)c2Cl)c(Cl)c1` [2,2',3,4',5,6,6'-heptachlorobiphenyl], the “Henry solubility constant Hcp” value stood at 0.0088.

Turning to `Clc1cc(Cl)c(-c2ccc(Cl)c(Cl)c2Cl)cc1Cl` [2,2',3,4,4',5'-hexachlorobiphenyl], the “Henry solubility constant Hcp” value stood at 0.022.

On to `Clc1ccc(Cl)c(-c2cccc(Cl)c2Cl)c1` [2,2',3,5'-tetrachlorobiphenyl], for which the “Henry solubility constant Hcp” value is 0.036.

As to `Clc1cc(Cl)c(-c2cc(Cl)c(Cl)cc2Cl)cc1Cl` [2,2',4,4',5,5'-hexachlorobiphenyl], the “Henry solubility constant Hcp” value stood at 0.019.

With `Clc1cc(Cl)c(-c2cc(Cl)c(Cl)cc2Cl)c(Cl)c1` [2,2',4,4',5,6'-hexachlorobiphenyl], the “Henry solubility constant Hcp” value is 0.013.

As to `Clc1ccc(Cl)c(-c2cc(Cl)c(Cl)cc2Cl)c1` [2,2',4,5,5'-pentachlorobiphenyl], the “Henry solubility constant Hcp” value was determined as 0.024.

As to `Clc1cc(Cl)c(-c2ccccc2Cl)c(Cl)c1` [2,2',4,6-tetrachlorobiphenyl], the “Henry solubility constant Hcp” value stood at 0.016.

As to `Clc1ccc(Cl)c(-c2cc(Cl)ccc2Cl)c1` [2,2',5,5'-tetrachlorobiphenyl], the “Henry solubility constant Hcp” value stood at 0.032.

With `Clc1ccc(Cl)c(-c2ccccc2Cl)c1` [2,2',5-trichlorobiphenyl], the “Henry solubility constant Hcp” value came out at 0.039.

As to `Clc1ccc(-c2cc(Cl)c(Cl)cc2Cl)cc1Cl` [2,3',4,4',5-pentachlorobiphenyl], the “Henry solubility constant Hcp” value came out at 0.028.

`Clc1ccc(-c2ccc(Cl)c(Cl)c2)c(Cl)c1` [2,3',4,4'-tetrachlorobiphenyl]: the “Henry solubility constant Hcp” value is 0.027.

Consider `Clc1ccc(-c2ccc(Cl)c(Cl)c2Cl)cc1Cl` [2,3,3',4,4'-pentachlorobiphenyl], for which the “Henry solubility constant Hcp” value came to 0.03.

Regarding `Clc1ccc(-c2ccccc2Cl)cc1` [2,4'-dichlorobiphenyl], the “Henry solubility constant Hcp” value was 0.04.

Turning to `Clc1ccccc1-c1ccccc1` [2-chlorobiphenyl], the “Henry solubility constant Hcp” value was 0.049.

As for `Clc1ccc(-c2cc(Cl)c(Cl)c(Cl)c2)cc1Cl` [3,3',4,4',5-pentachlorobiphenyl], the “Henry solubility constant Hcp” value was 0.048.

Consider `Clc1ccc(-c2ccc(Cl)c(Cl)c2)cc1Cl` [3,3',4,4'-tetrachlorobiphenyl], for which the “Henry solubility constant Hcp” value was 0.062.

These data come from Sander's compilation of Henry's law constants (doi:10.1021/je0000266).
